According to paper PMC9225712, “Rational design of biodegradable sulphonamide candidates treating septicaemia by synergistic dual inhibition of COX-2/PGE2 axis and DHPS enzyme” (Journal of Enzyme Inhibition and Medicinal Chemistry, 2022):

Columns and labels:
[1] = test system: Bacillus subtilis (RCMB 0100162); experiment: Inhibition zone, agar cup diffusion; settings: RCMB0100162, 24 h, read-out: inhibition zones (IZ) B. subtillis
[2] = test system: Salmonella typhi (RCMB 0100104); experiment: Inhibition zone, agar cup diffusion; type: cell-based; settings: Salmonella enterica, 24 h, read-out: inhibition zones (IZ) S. typhi
[3] = test system: Staphylococcus aureus (RCMB 0100183); experiment: Inhibition zone, agar cup diffusion; settings: RCMB0100183, 24 h, read-out: inhibition zones (IZ) S. aureus
[4] = test system: Proteus vulgaris (RCMB 010085); experiment: Inhibition zone, agar cup diffusion; settings: RCMB010085, 24 h, read-out: inhibition zones (IZ) P. vulgaris
ovine COX-1 = target: T1, ovine COX-1 (Ovis aries, UniProt P05979); experiment: In vitro COX-1 enzymatic assay (Cayman kit 560131); type: biochemical; settings: Mean ± SEM of triplicate determinations
T1 construct: purchased Cayman Chemicals Inc. 560131
T1 sequence (P05979 25-600): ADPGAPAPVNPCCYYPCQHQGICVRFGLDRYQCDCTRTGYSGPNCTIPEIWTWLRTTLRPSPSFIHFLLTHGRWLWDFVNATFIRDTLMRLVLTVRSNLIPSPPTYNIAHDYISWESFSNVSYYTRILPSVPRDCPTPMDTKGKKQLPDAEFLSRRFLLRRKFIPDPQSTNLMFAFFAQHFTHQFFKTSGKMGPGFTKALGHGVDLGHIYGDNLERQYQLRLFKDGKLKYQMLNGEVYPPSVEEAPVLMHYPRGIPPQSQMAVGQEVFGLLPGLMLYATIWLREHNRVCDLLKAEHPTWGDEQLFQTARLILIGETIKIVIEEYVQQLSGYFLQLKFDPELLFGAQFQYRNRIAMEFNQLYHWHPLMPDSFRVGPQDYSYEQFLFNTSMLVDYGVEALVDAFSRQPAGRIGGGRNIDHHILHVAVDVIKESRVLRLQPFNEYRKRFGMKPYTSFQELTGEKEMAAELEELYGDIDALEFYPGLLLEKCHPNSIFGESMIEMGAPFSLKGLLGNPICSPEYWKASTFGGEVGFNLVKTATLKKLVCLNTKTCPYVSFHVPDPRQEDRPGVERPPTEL

[5] = test system: Staphylococcus epidermidis (RCMB 0100183); experiment: Inhibition zone, agar cup diffusion; settings: RCMB0100183, 24 h, read-out: inhibition zones (IZ) S. epidermidis
[6] = test system: Escherichia coli (RCMB 010052); experiment: Inhibition zone, agar cup diffusion; settings: RCMB010052, 24 h, read-out: inhibition zones (IZ) E.coli
human recombinant COX-2 = target: T2, human recombinant COX-2 (Homo sapiens, UniProt P35354); experiment: In vitro COX-2 enzymatic assay (Cayman kit 560131); settings: for SI COX-1/COX-2: COX-2 selectivity index: COX-1 IC50/COX-2 IC50
T2 sequence (P35354 18-604): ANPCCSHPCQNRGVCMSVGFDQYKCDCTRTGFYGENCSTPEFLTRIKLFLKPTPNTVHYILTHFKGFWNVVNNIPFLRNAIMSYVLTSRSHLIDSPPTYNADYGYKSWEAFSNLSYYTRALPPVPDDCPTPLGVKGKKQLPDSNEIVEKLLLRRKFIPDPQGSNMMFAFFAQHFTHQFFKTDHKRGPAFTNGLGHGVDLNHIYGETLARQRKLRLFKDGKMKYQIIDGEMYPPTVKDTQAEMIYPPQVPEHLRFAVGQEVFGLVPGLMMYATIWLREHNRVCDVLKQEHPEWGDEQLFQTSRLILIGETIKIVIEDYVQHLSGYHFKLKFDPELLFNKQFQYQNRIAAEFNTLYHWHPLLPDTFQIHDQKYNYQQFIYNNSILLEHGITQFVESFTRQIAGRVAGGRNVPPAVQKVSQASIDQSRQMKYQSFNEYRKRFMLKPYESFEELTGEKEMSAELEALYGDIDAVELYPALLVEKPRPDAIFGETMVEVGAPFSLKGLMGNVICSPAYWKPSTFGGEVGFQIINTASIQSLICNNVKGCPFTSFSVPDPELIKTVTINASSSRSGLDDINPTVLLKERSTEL

[7] = test system: Shigella dysenteriae (RCMB 0100542); experiment: Inhibition zone, agar cup diffusion; type: cell-based; settings: RCMB0100542, 24 h, read-out: inhibition zones (IZ) S. dysenteriae
[8] = test system: Pseudomonas aeruginosa (RCMB 0100243); experiment: Inhibition zone, agar cup diffusion; settings: RCMB0100243, 24 h, read-out: inhibition zones (IZ) P.aeruginosa
[9] = test system: Streptococcus mutans (RCMB 0100172); experiment: Inhibition zone, agar cup diffusion; settings: RCMB0100172, 24 h, read-out: inhibition zones (IZ) S. mutans

Structure (SMILES)	zone of inhibition at 1000 µg/mL [1] [mm]	zone of inhibition at 1000 µg/mL [2] [mm]	zone of inhibition at 1000 µg/mL [3] [mm]	zone of inhibition at 1000 µg/mL [4] [mm]	IC50 (ovine COX-1) [µM]	zone of inhibition at 1000 µg/mL [5] [mm]	zone of inhibition at 1000 µg/mL [6] [mm]	IC50 (human recombinant COX-2) [µM]	SI COX-1/COX-2 (human recombinant COX-2)	zone of inhibition at 1000 µg/mL [7] [mm]	zone of inhibition at 1000 µg/mL [8] [mm]	zone of inhibition at 1000 µg/mL [9] [mm]
O=C(NCc1ccccc1)c1cc(/N=N/c2ccc(S(=O)(=O)Nc3nccs3)cc2)ccc1O [Compound 5f, N-Benzyl-2-hydroxy-5-((4-(N-(thiazol-2-yl)sulfamoyl)phenyl)diazenyl) benzamide]	17	16	24	17	9.7 ± 0.06	36	16	0.11 ± 0.003	88.2	25	16	27
NS(=O)(=O)c1ccc(/N=N/c2ccc(O)c(C(=O)N3CCCCC3)c2)cc1 [Compound 5h, 4-((4-Hydroxy-3-(piperidine-1-carbonyl)phenyl)diazenyl) benzenesulfonamide]	20	18	22	19	8.2 ± 0.12	29	14	0.14	58.6	24	16	29
CCCCNC(=O)c1cc(/N=N/c2ccc(S(=O)(=O)Nc3nccc(C)n3)cc2)ccc1O [Compound 5d, N-Butyl-2-hydroxy-5-((4-(N-(4-methylpyrimidin-2yl)sulfamoyl)phenyl)diazenyl) benzamide]	20	16	28	19	10.6 ± 0.08	32	16	0.09 ± 0.001	116.5	26	18	28
CC1(C)S[C@@H]2[C@H](NC(=O)[C@H](N)c3ccccc3)C(=O)N2[C@H]1C(=O)O [Ampicillin, reference compound]	15		30			32						30
NS(=O)(=O)c1ccc(/N=N/c2ccc(O)c(C(=O)NCc3ccccc3)c2)cc1 [Compound 5e, N-Benzyl-2-hydroxy-5-((4-sulfamoylphenyl)diazenyl) benzamide]	16	16	32	21	8.3 ± 0.06	35	16	0.12 ± 0.003	69.2	25	18	30
CCCCNC(=O)c1cc(/N=N/c2ccc(S(N)(=O)=O)cc2)ccc1O [Compound 5a, N-Butyl-2-hydroxy-5-((4-sulfamoylphenyl)diazenyl) benzamide]	17	15	26	18	9.6 ± 0.06	33	14	0.11 ± 0.0003	87.3	25	14	29
NS(=O)(=O)c1ccc(/N=N/c2ccc(O)c(C(=O)N3CCOCC3)c2)cc1 [Compound 5l, 4-((4-Hydroxy-3-(morpholine-4-carbonyl)phenyl)diazenyl) benzenesulfonamide]	20	17	18	19	10.2 ± 0.08	32	14	0.08 ± 0.001	134.2	26	14	26
CCCCNC(=O)c1cc(/N=N/c2ccc(S(=O)(=O)Nc3ncccn3)cc2)ccc1O [Compound 5c, N-Butyl-2-hydroxy-5-((4-(N-(pyrimidin-2-yl)sulfamoyl)phenyl)diazenyl) benzamide]	19	13	29	17	11.2 ± 0.08	30	16	0.08 ± 0.0003	145.5	25	16	31
C[C@H]1COc2c(N3CCN(C)CC3)c(F)cc3c(=O)c(C(=O)O)cn1c23 [Levofloxacin, levofloxacin, reference compound]		11		15			11			20	8	
O=C(NCc1ccccc1)c1cc(/N=N/c2ccc(S(=O)(=O)Nc3ncccn3)cc2)ccc1O [Compound 5g, N-Benzyl-2-hydroxy-5-((4-(N-(pyrimidin-2-yl)sulfamoyl)phenyl)diazenyl) benzamide]	20	13	26	17	10.5 ± 0.08	32	16	0.1 ± 0.0003	109.4	26	14	30
